Measurements: BindingDB's records for doi:10.1021/bi00839a042 (Michigan State University, 1969)

Biological target: T1, Complement C1s subcomponent (Homo sapiens, UniProt P09871)
T1 sequence (P09871 whole entry): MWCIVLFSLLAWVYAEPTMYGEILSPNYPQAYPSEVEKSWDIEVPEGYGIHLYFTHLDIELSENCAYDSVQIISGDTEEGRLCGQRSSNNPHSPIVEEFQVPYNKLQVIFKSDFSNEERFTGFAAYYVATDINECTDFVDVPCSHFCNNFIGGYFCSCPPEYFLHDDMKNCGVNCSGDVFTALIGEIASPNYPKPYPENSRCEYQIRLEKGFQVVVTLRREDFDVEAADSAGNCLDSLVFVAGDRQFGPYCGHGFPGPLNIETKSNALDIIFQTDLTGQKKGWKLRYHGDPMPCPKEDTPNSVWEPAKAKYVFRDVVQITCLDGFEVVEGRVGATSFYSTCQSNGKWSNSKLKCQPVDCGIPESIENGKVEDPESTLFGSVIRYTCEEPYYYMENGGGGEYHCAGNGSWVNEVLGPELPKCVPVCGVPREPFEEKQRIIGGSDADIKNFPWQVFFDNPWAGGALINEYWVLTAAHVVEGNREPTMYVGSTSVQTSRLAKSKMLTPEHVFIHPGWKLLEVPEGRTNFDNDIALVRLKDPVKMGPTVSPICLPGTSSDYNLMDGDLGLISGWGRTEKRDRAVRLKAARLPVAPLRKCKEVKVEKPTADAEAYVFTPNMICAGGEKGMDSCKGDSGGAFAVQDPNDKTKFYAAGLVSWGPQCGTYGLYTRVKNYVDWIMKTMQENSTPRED
Assay: Enzymatic Assay
Conditions: pH 8.05; 25.50 °C
Description: All readings were made in a Hitachi-Coleman ultraviolet-visible 101 spectrophotometer.

Row | SMILES | Ki [mM]
1 | N=C(N)NCC(=O)O [Guanidinacetic] | 4.37
2 | N=C(N)c1ccccc1 [Benzamidine] | 0.603
3 | N=C(N)NN [CAS_2146] | 18.1
4 | CC(C)(C)CNC(=N)N [2,2'-Dimethyl-1-guanidinopropane] | 13.4
5 | Cc1nc(NC(=N)N)nc2ccccc12 [2-Guanidino-4-methylguinazoline] | 0.0765
6 | N=C(N)Nc1ccccc1 [Alpha-Phenylguanidine] | 0.548
7 | O=C(CCl)NC(Cc1ccc(O)cc1)C(=O)O [N-Chloroacetyl-L-tyrosine] | 1.12
8 | N=C(N)c1ccc([N+](=O)[O-])cc1 [p-Nitrobenzamidine] | 92.5
9 | O=C(NC(Cc1ccc(O)cc1)C(=O)O)c1ccccc1 [N-z-L-Tyr] | 0.37
